Entries after “also recorded” stand apart in the source; their conditions may differ.
What was measured:
[1] = system: rats; assay: Irwin's test and body temperature in rats; format: in vivo, rat
Method: (§1) The possible adverse effects of polymorphic Form A on the CNS, cardiovascular, respiratory and immune functions were evaluated in vitro and in vivo (rats and dogs) in different experimental models. In the in vivo tests, the tested compound was always given by single oral administration at the doses of 100, 300 and 1000 mg/kg.
Neurobehavioural effects of polymorphic Form A have been investigated according to the Irwin Test by using a standard observation battery, which allows the assessment of both peripheral and central nervous system activities (e.g. motor activity, motor co-ordination, somatic sensory/motor reflex responses, autonomic responses); body temperature was measured by means of an electronic thermometer.

[2] = system: rats; assay: Proconvulsant activity in rats (pentylenetetrazol); format: in vivo, rat; conditions: with pentylenetetrazol
Method: as §1

[3] = target: T1, HERG tail current (Homo sapiens, UniProt Q12809); assay: HERG tail current, patch clamp in HEK-293 cells; format: cell-based
T1 construct: expressed in transfected cells; host or cells: HEK-293
Text: A possible blocking effect of polymorphic Form A on Herg tail current recorded from HEK-293 cells (Human Embryonic Kidney cells) stably transfected with HERGG-1 cDNA was investigated. The method consisted in measuring the HERG tail current by using the patch clamp techniques in the whole cell configuration. Compounds which inhibited HERG current were recognized to prolong the cardiac action potential and increase QT interval.

[4] = system: isolated canine Purkinje fibres; assay: Cardiac action potential in isolated canine Purkinje fibres
Method: A possible adverse effect induced by polymorphic Form A on cardiac action potential was evaluated in isolated canine Purkinje fibres. Transmembrane action potential was measured by means of the intracellular microelectrode technique; this method is recommended to detect the capacity of a substance to induce prolongation of the QT interval.

[5] = system: conscious dogs; assay: Cardiovascular evaluation in conscious dogs (telemetry); format: in vivo, dog
Method: as §1
Any possible effect of polymorphic Form A administered at the doses of 100, 300 and 1000 mg/kg by oral route on blood pressure, heart rate and electrocardiogram was evaluated in conscious dogs, free to move about, previously instrumented with telemetric transmitters. In the first part of the study, only telemetric measurements were recorded; the recording of the parameters started at least 24 hours before the administration of the compound and were continued for 24 hours following dosing. In the second part, only the highest dose of 1000 mg/kg was administered and complementary investigations such as 6-lead electrocardiogram (leads I, II, III, aVL, aVR and aVF), blood sampling and observation of the animals were performed before treatment and 3 hours post-treatment.

[6] = system: Salmonella typhimurium; assay: Salmonella Typhimurium Reverse Mutation Assay (Ames test); format: cell-based
Method: The mutagenic potential of polymorphic Form A was evaluated in vitro in the Salmonella Typhimurium Reverse Mutation Assay according to EC guidelines. […] Therefore polymorphic Form A is to be considered non-mutagenic in this Salmonella typhimurium reverse mutation assay.

[7] = system: Rat (Bone marrow Cells); assay: Micronucleus test in rat bone marrow; format: in vivo; conditions: os, single, 500-2000 mg/kg, 24 and 48 hours
Method: Any clastogenic or spindle poison activity of polymorphic Form A was investigated by detecting micronucleated polychromatic erythrocytes in the bone marrow of treated rats. The study was conducted in compliance with the EC Guidelines. The method involved searching for the presence of a chromosome fragment, or a number of chromosomes, resulting from a deletion or a mitotic spindle poison effect, in the polychromatic erythrocytes in the bone marrow. Clastogenic products may produce, at the moment of mitosis, chromosome breakage, while spindle poisons disturb the structure of the mitotic spindles. An acentric fragment of a chromosome that has not migrated normally is not retained in the nucleus of the daughter cell, and appears in the cytoplasm. It is then known as a Howell-Jolly body or micronucleus. The micronucleus can be detected in polychromatic erythrocytes, as these cells expel their main nucleus shortly after the last mitosis and the micronucleus remains in the red blood cells. Male and female Sprague Dawley rats were treated orally once with 2000-1000-500 mg/kg of polymorphic Form A and 24 and 48 hours after the treatment their femurs were sampled and bone marrow cells were extracted.

T1 sequence (Q12809 whole entry): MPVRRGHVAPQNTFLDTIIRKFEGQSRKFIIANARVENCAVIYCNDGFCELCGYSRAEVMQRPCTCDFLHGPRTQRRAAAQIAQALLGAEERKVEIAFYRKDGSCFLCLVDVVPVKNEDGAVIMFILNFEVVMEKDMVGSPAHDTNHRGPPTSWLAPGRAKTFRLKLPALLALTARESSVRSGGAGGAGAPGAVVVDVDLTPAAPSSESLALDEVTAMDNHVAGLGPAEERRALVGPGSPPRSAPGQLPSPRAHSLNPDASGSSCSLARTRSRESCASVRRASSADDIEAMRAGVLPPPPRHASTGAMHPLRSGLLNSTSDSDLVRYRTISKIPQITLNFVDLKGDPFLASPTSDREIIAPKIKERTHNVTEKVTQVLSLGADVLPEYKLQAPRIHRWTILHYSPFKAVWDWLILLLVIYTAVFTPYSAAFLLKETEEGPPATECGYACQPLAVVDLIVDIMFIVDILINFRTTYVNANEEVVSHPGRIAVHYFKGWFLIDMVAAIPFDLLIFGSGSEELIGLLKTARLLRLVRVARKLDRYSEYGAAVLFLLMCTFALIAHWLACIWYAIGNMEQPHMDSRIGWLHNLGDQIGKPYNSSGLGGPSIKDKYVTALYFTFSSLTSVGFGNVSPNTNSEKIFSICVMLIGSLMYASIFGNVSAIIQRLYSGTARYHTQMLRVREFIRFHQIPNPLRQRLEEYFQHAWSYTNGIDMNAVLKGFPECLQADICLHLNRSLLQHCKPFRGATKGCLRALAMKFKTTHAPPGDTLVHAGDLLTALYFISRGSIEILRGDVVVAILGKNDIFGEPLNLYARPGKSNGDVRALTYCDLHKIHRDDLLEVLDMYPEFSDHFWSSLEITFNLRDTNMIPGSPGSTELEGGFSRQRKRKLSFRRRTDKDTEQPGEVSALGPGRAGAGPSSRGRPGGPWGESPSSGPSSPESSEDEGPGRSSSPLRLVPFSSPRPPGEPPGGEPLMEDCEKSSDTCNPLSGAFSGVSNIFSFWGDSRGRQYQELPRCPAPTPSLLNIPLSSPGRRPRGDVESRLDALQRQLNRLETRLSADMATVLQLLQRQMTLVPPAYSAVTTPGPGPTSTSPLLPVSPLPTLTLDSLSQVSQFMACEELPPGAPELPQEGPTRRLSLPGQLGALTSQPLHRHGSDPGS

`COCCCC(=O)NCc1ccc(C(F)(F)F)cc1` [Polymorphic Form A, N-[4-(trifluoromethyl)benzyl]-4-methoxybutyramide] was tested, and the Body temperature ([1]; 100 mg/kg single oral) was “not affected”, the “Spontaneous locomotor activity (Irwin test)” value ([1]; 100 mg/kg single oral) was “transient decrease in spontaneous locomotor activity” and the “Posture / neurobehavioural signs (Irwin test)” value ([1]; 1000 mg/kg single oral, all the effects were reversible) was “tip toe position, ataxic and subsequently a lying recumbent or flattened position”. For the same compound, the “Effect on locomotion (Irwin test)” value ([1]; higher doses (300 and 1000 mg/kg) single oral, with myorelaxant effect and decrease in awareness) was “more marked and more long lasting”, the Body temperature ([1]; higher doses (300 and 1000 mg/kg), up to four hours) was “significant decrease in body temperature” and the “Time of occurrence of seizures” value ([2]; 100 and 300 mg/kg oral) was “increase in the time of occurrence of seizures”. The Proconvulsant effect ([2]; all the doses (100, 300, 1000 mg/kg oral)) was “no statistical significant proconvulsant effect”, the “Reduction of HERG tail current” value ([3]; 10^−4 M, highest concentration tested) was “about 50%” and the “Inhibition of HERG tail current” value ([3]; 10^−6 and 10^−5 M) was “slight and non dose-dependent decrease”. For the same compound, the “Inhibition of HERG tail current” value ([3]; 10^−7 M) was “no statistically significant inhibition”, the “Inhibition of HERG tail current, highest value reached” value ([3]; all concentrations, 70% is the threshold for an active compound) was less than 70% and the “Action potential duration of repolarisation” value ([4]; 10^−4 M) was “significant decrease in action potential duration of repolarisation”. For the same compound, the Action potential parameters ([4]; 10^−7, 10^−6 and 10^−5 M, normal or low stimulation rates) was “no statistically significant effect”, the “Early or delayed after-depolarisation” value ([4]; all the concentrations tested) was “neither early nor delayed after-depolarisation were recorded” and the “Blood pressure, heart rate and electrocardiogram tracing” value ([5]; 100 mg/kg oral) was “did not induce relevant changes”. For the same compound, the Presence in plasma ([5]; 1000 mg/kg oral, 3 hours after the administration) was “confirmed the presence”, the 6-lead electrocardiogram ([5]; 1000 mg/kg oral, before and 3 hours after dosing) was “No disturbance in the 6-lead electrocardiogram” and the Vomiting ([5]; 1000 mg/kg oral, between 0.5 and 17 hours after dosing) was “All animals vomited”. The “Arterial blood pressure (mean, systolic and diastolic)” value ([5]; 300 and 1000 mg/kg oral) was “slight increase in arterial blood pressure”, the “PR and PQ interval durations” value ([5]; 300 and 1000 mg/kg oral) was “slight decrease in PR and PQ interval durations” and the “QT interval duration corrected for heart rate (Sarma's method)” value ([5]; 300 and 1000 mg/kg oral) was “slight increase in QT interval duration”. The “Electrocardiogram (lead II), T wave morphology” value ([5]; all the doses tested) was “No disturbance in the electrocardiogram (lead II)”, the “Genotoxicity, Ames test result” value ([6]; S. typhimurium, in vitro, 3-500 μg/ml) was “Negative” and the “Gene mutations by base pair changes or frameshifts” value ([6]; TA 1535, TA 1537, TA 98, TA 100, TA102, 50 to 3000 μg/ml, with and without metabolic activation) was “did not induce gene mutations”. For the same compound, the “Genotoxicity, Micronucleus test result” value [7] was “no clastogenic activity; also recorded: Negative”.

Source: patent USRE47078E1, “Polymorphic forms of N-[4-(trifluoromethyl)benzyl]-4-methoxybutyramide” (Laboratorio Farmaceutico C.T. S.R.L., priority 2007, dated 2018)
